Measured values reported in patent US5681832A, “Aroylaniline compounds, pharmaceutical compositions, and methods of using same to inhibit viral activity” (priority 1995, dated 1997).
Where a name gives a salt, the structure may show the parent alone. Read-outs that look alike come from different tables or passages of the source.

Tests used:
[1] = test system: HIV-1; assay: in vitro anti-HIV screening (NCI XTT soluble-formazan assay, protection of HIV-1-infected CEM T4 lymphocytes from cytolysis); type: cell-based; details: for EC50: HIV-1-infected CEM cells, 6 days, approximate values, read-out: EC50 (Molar), 50% effective concentration; for TI50 (IC/EC), therapeutic index: IC50/EC50; for Conclusion: NCI anti-HIV screen
Source text: The aroylaniline compounds of the present invention were subjected to in vitro screening to determine their anti-HIV activity.
The National Cancer Institute's procedure for testing for agents active against Human Immunodeficiency Virus (HIV) (Weislow, O. W. et al., "New soluble-formazan assay for HIV-1 cytopathic effects: application to high-flux screening of synthetic and natural products for AIDS-antiviral activity," J. Natl Cancer Inst., 81, 577-586 (1989)) is designed to detect agents acting at any stage of the virus reproductive cycle. The assay includes the killing of T4 lymphocytes by HIV. Pursuant to the test, small amounts of HIV are added to cells, and a complete cycle of virus reproduction is necessary to obtain the required cell killing. Agents that interact with virions, cells, or virus gene-products to interfere with viral activities will protect cells from cytolysis. The system is thus designed to detect anti-HIV activity. However, compounds that are chemically labile or are rapidly metabolized in the culture conditions may not show activity in this screen. All tests are compared with at least one positive (e.g., AZT-treated) control done at the same time under identical conditions.
(§1) 1. Candidate agent is dissolved in dimethyl sulfoxide (unless otherwise instructed) and then diluted 1:100 in cell culture medium before preparing serial half-log10 dilutions which are then to 96-well microfilter plates. T4 lymphocytes (CEM cell line) are added, and after a brief interval HIV-1 is added to all wells, resulting in a 1:200 final dilution […]. Uninfected cells with the compound serve as a toxicity control, and infected and uninfected cells without the compound serve as basic controls.
(§2) 2. Cultures are incubated at 37° C. in a 5% carbon dioxide atmosphere for 6 days.
(§3) 3. The tetrazolium salt, XTT, is added to all wells, and cultures are incubated to allow formazan color development by viable cells.
(§4) 4. Individual wells are analyzed spectrophotometrically to quantitate formazan production, and in addition are viewed microscopically for detection of viable cells and confirmation of protective activity.
(§5) 5. Drug-tested virus-infected cells are compared with drug-treated noninfected cells and with other appropriate controls (untreated infected and untreated noninfected cells, drug-containing wells without cells, etc.) on the same plate.
6. Data are reviewed in comparison with other tests done at the same time and a determination about activity is made.
The aroylaniline compounds of the present invention were tested for anti-HIV activity according to the above procedure. FIGS. 1-6 represent test results of the aroylaniline compounds of Compounds 1, 3, 13, 14, 29 and 32.
(§6) FIGS. 1 to 6 display a plot of the log10 of the concentrations (as μg/mL or molar as shown) of the aroylaniline compounds, Compounds 1, 3, 13, 14, 29 and 32, against the measured test values expressed as a percentage of the uninfected, untreated control values. The solid line depicts the percentage of surviving HIV-infected cells treated with sample (at the indicated concentration) relative to uninfected, untreated controls. Thus, the solid line expresses the anti-HIV activity of the compound. The dashed line depicts the percentage of surviving uninfected cells treated with the compound relative to the same uninfected, untreated controls. Thus, the dashed line expresses the growth inhibitory properties of the compound. The viral cytopathic effect […] is indicated by a dotted reference line. […] Survival values of this parameter less than 50% are considered acceptable in the current protocol. Approximate values for 50% effective concentration (EC50) have been calculated for each test and are set forth for these Compounds in Tables 2-7, respectively.

[2] = test system: T4 lymphocytes (CEM cell line); assay: toxicity control: survival of uninfected T4 lymphocytes (CEM cell line) treated with compound (growth inhibition); type: cell-based; details: for IC50: read-out: IC50 (Molar)
Description: as §1, §2, §3, §4, §5, §6

[3] = Human immunodeficiency virus 1, CCRF-CEM, 144 h
[4] = Homo sapiens, CCRF-CEM, read-out: Percent of Control, Uninfected

## O=C([O-])c1c(O)ccc(O)c1C(=O)Nc1ccc(C=Cc2ccc(NC(=O)c3c(O)ccc(O)c3C(=O)[O-])cc2S(=O)(=O)O)c(S(=O)(=O)O)c1.[Na+].[Na+] [Compound 29, 4,4'-di(2-carboxy-3,6-dihydroxybenzamido)stilbene-2,2'-disulfonic acid disodium salt]
[1]; [3]
  EC50: 12.5 µM
[1]; Human immunodeficiency virus 1, CCRF-CEM, 2.00 × 10^-4 Molar, read-out: Percent of Protection
  inhibition at 200 µM: 79.7%
[1]; Human immunodeficiency virus 1, CCRF-CEM, 2.00 × 10^-5 Molar, read-out: Percent of Protection
  inhibition at 20 µM: 83.3%
[1]; Human immunodeficiency virus 1, CCRF-CEM, 2.00 × 10^-6 Molar, read-out: Percent of Protection
  inhibition at 2 µM: 0.58%
[1]; Human immunodeficiency virus 1, CCRF-CEM, 2.00 × 10^-7 Molar, read-out: Percent of Protection
  inhibition at 0.2 µM: -1.09%
[1]; Human immunodeficiency virus 1, CCRF-CEM, 6.32 × 10^-5 Molar, read-out: Percent of Protection
  inhibition at 63.2 µM: 92.7%
[1]; Human immunodeficiency virus 1, CCRF-CEM, 6.33 × 10^-6 Molar, read-out: Percent of Protection
  inhibition at 6.33 µM: 2.47%
[1]; Human immunodeficiency virus 1, CCRF-CEM, 6.34 × 10^-7 Molar, read-out: Percent of Protection
  inhibition at 0.634 µM: -0.52%
[1]; Human immunodeficiency virus 1, CCRF-CEM, 6.35 × 10^-8 Molar, read-out: Percent of Protection
  inhibition at 0.0635 µM: -3.31%
[1]; Human immunodeficiency virus 1, CEM-T4, 2.00 × 10^-4 Molar, read-out: Percent of Control, Infected
  activity at 200 µM: 81.1%
[1]; Human immunodeficiency virus 1, CEM-T4, 2.00 × 10^-5 Molar, read-out: Percent of Control, Infected
  activity at 20 µM: 84.5%
[1]; Human immunodeficiency virus 1, CEM-T4, 2.00 × 10^-6 Molar, read-out: Percent of Control, Infected
  activity at 2 µM: 7.54%
[1]; Human immunodeficiency virus 1, CEM-T4, 2.00 × 10^-7 Molar, read-out: Percent of Control, Infected
  activity at 0.2 µM: 5.99%
[1]; Human immunodeficiency virus 1, CEM-T4, 6.32 × 10^-5 Molar, read-out: Percent of Control, Infected
  activity at 63.2 µM: 93.2%
[1]; Human immunodeficiency virus 1, CEM-T4, 6.33 × 10^-6 Molar, read-out: Percent of Control, Infected
  activity at 6.33 µM: 9.3%
[1]; Human immunodeficiency virus 1, CEM-T4, 6.34 × 10^-7 Molar, read-out: Percent of Control, Infected
  activity at 0.634 µM: 6.52%
[1]; Human immunodeficiency virus 1, CEM-T4, 6.35 × 10^-8 Molar, read-out: Percent of Control, Infected
  activity at 0.0635 µM: 3.92%
[1]
  TI50 (IC/EC), therapeutic index: > 1.61 × 10^+1
  Conclusion: CONFIRMED ACTIVE
[2]; Homo sapiens, CCRF-CEM, 144 h
  IC50: > 220 µM
[2]; [4]
  activity at 0.0635 µM: 93.2%
  activity at 0.2 µM: 93.8%
  activity at 0.634 µM: 92.8%
  activity at 2 µM: 95.2%
  activity at 6.33 µM: 96.7%
  activity at 20 µM: 99%
  activity at 63.2 µM: 100%
  activity at 200 µM: 93%

## N,N'-Bis(4-amino-2-sulfobenzoyl)-4,4'-diaminostilbene-2,2-disulfonic acid tetrasodium salt [Compound 32]
[1]; 2.00 × 10^-4 Molar
  Percent of Control, Infected: 61.85%
[1]; 2.00 × 10^-4 Molar, 200 µM
  Percent of Protection: 52.90%
[1]; 2.00 × 10^-5 Molar
  Percent of Control, Infected: 112.68%
[1]; 2.00 × 10^-5 Molar, 20 µM
  Percent of Protection: 115.65%
[1]; 2.01 × 10^-6 Molar
  Percent of Control, Infected: 97.97%
[1]; 2.01 × 10^-6 Molar, 2.01 µM
  Percent of Protection: 97.49%
[1]; 2.01 × 10^-7 Molar
  Percent of Control, Infected: 14.10%
[1]; 2.01 × 10^-7 Molar, 0.201 µM
  Percent of Protection: -6.05%
[1]; 6.33 × 10^-5 Molar
  Percent of Control, Infected: 115.38%
[1]; 6.33 × 10^-5 Molar, 63.3 µM
  Percent of Protection: 118.99%
[1]; 6.34 × 10^-6 Molar
  Percent of Control, Infected: 105.65%
[1]; 6.34 × 10^-6 Molar, 6.34 µM
  Percent of Protection: 106.98%
[1]; 6.35 × 10^-7 Molar
  Percent of Control, Infected: 26.85%
[1]; 6.35 × 10^-7 Molar, 0.635 µM
  Percent of Protection: 9.69%
[1]; 6.36 × 10^-8 Molar
  Percent of Control, Infected: 17.12%
[1]; 6.36 × 10^-8 Molar, 0.0636 µM
  Percent of Protection: -2.32%
[1]
  EC50: 1.08 µM
  Conclusion: CONFIRMED ACTIVE
[2]; 2.00 × 10^-4 Molar
  Percent of Control, Uninfected: 35.45%
[2]; 2.00 × 10^-5 Molar
  Percent of Control, Uninfected: 98.84%
[2]; 2.01 × 10^-6 Molar
  Percent of Control, Uninfected: 98.97%
[2]; 2.01 × 10^-7 Molar
  Percent of Control, Uninfected: 82.40%
[2]; 6.33 × 10^-5 Molar
  Percent of Control, Uninfected: 95.50%
[2]; 6.34 × 10^-6 Molar
  Percent of Control, Uninfected: 94.34%
[2]; 6.35 × 10^-7 Molar
  Percent of Control, Uninfected: 95.11%
[2]; 6.36 × 10^-8 Molar
  Percent of Control, Uninfected: 83.94%
[2]; uninfected CEM cells, 6 days
  IC50: 151 µM

## O=C(Nc1ccc(/C=C/c2ccc(NC(=O)c3cc(S(=O)(=O)O)c4cccnc4c3O)cc2S(=O)(=O)O)c(S(=O)(=O)O)c1)Nc1ccc(/C=C/c2ccc(NC(=O)c3cc(S(=O)(=O)O)c4cccnc4c3O)cc2S(=O)(=O)O)c(S(=O)(=O)O)c1 [Compound 3, 1,3-di[2,2'-disulfo-4(8-hydroxy-5-sulfo-7-quinoline)]stilbene urea, hexasodium salt]
[1]; [3]
  EC50: 4.06 µM
[1]; Human immunodeficiency virus 1, CCRF-CEM, 1.58 × 10^-5 Molar, read-out: Percent of Protection
  inhibition at 15.8 µM: 92.9%
[1]; Human immunodeficiency virus 1, CCRF-CEM, 1.58 × 10^-6 Molar, read-out: Percent of Protection
  inhibition at 1.58 µM: 0.19%
[1]; Human immunodeficiency virus 1, CCRF-CEM, 1.58 × 10^-7 Molar, read-out: Percent of Protection
  inhibition at 0.158 µM: -1.29%
[1]; Human immunodeficiency virus 1, CCRF-CEM, 1.58 × 10^-8 Molar, read-out: Percent of Protection
  inhibition at 0.0158 µM: 0.19%
[1]; Human immunodeficiency virus 1, CCRF-CEM, 5.00 × 10^-5 Molar, read-out: Percent of Protection
  inhibition at 50 µM: 90.8%
[1]; Human immunodeficiency virus 1, CCRF-CEM, 5.00 × 10^-6 Molar, read-out: Percent of Protection
  inhibition at 5 µM: 61.1%
[1]; Human immunodeficiency virus 1, CCRF-CEM, 5.01 × 10^-7 Molar, read-out: Percent of Protection
  inhibition at 0.501 µM: 2%
[1]; Human immunodeficiency virus 1, CCRF-CEM, 5.02 × 10^-8 Molar, read-out: Percent of Protection
  inhibition at 0.0502 µM: 0.51%
[1]; Human immunodeficiency virus 1, CEM-T4, 1.58 × 10^-5 Molar, read-out: Percent of Control, Infected
  activity at 15.8 µM: 93.2%
[1]; Human immunodeficiency virus 1, CEM-T4, 1.58 × 10^-6 Molar, read-out: Percent of Control, Infected
  activity at 1.58 µM: 4.18%
[1]; Human immunodeficiency virus 1, CEM-T4, 1.58 × 10^-7 Molar, read-out: Percent of Control, Infected
  activity at 0.158 µM: 2.76%
[1]; Human immunodeficiency virus 1, CEM-T4, 1.58 × 10^-8 Molar, read-out: Percent of Control, Infected
  activity at 0.0158 µM: 4.18%
[1]; Human immunodeficiency virus 1, CEM-T4, 5.00 × 10^-5 Molar, read-out: Percent of Control, Infected
  activity at 50 µM: 91.1%
[1]; Human immunodeficiency virus 1, CEM-T4, 5.00 × 10^-6 Molar, read-out: Percent of Control, Infected
  activity at 5 µM: 62.7%
[1]; Human immunodeficiency virus 1, CEM-T4, 5.01 × 10^-7 Molar, read-out: Percent of Control, Infected
  activity at 0.501 µM: 5.92%
[1]; Human immunodeficiency virus 1, CEM-T4, 5.02 × 10^-8 Molar, read-out: Percent of Control, Infected
  activity at 0.0502 µM: 4.49%
[1]
  TI50 (IC/EC), therapeutic index: > 1.23 × 10^+1
  Conclusion: CONFIRMED ACTIVE
[2]; Homo sapiens, CCRF-CEM, 144 h, uninfected CEM cells, 6 days
  IC50: > 50 µM
[2]; Homo sapiens, CCRF-CEM, 1.58 × 10^-5 Molar, read-out: Percent of Control, Uninfected
  activity at 15.8 µM: 103%
[2]; Homo sapiens, CCRF-CEM, 1.58 × 10^-6 Molar, read-out: Percent of Control, Uninfected
  activity at 1.58 µM: 95.7%
[2]; Homo sapiens, CCRF-CEM, 1.58 × 10^-7 Molar, read-out: Percent of Control, Uninfected
  activity at 0.158 µM: 94.4%
[2]; Homo sapiens, CCRF-CEM, 1.58 × 10^-8 Molar, read-out: Percent of Control, Uninfected
  activity at 0.0158 µM: 111%
[2]; Homo sapiens, CCRF-CEM, 5.00 × 10^-5 Molar, read-out: Percent of Control, Uninfected
  activity at 50 µM: 98%
[2]; Homo sapiens, CCRF-CEM, 5.00 × 10^-6 Molar, read-out: Percent of Control, Uninfected
  activity at 5 µM: 97%
[2]; Homo sapiens, CCRF-CEM, 5.01 × 10^-7 Molar, read-out: Percent of Control, Uninfected
  activity at 0.501 µM: 97.7%
[2]; Homo sapiens, CCRF-CEM, 5.02 × 10^-8 Molar, read-out: Percent of Control, Uninfected
  activity at 0.0502 µM: 95.8%
